Measurements published in US10428082B2, “Triazole derivatives of melampomagnolide B and methods of use thereof” (BioVentures, LLC, priority 2016, dated 2019).
Where two headings read alike, the source gives them in different places.

Tests used:
M9 ENL1 cell line = experiment: Anti-leukemic activity, Annexin V/7-AAD flow cytometry; assay type: cell-based; conditions: 24 h of drug exposure; read-out: M9ENL1 (EC50)
In short: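 Cells were exposed to drug for 24 h. Apoptotic populations were measured by flow cytometry with Annexin V/7-AAD labelling. Primary AML cells were from patients.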

786-0 = experiment: NCI 60 growth inhibition; assay type: cell-based, human; conditions: 786-0, Renal Cancer, Table 2
Description: (§1) The above triazole derivatives of melampomagnolide B were evaluated for growth inhibitory properties against an NCI panel of 60 human cancer cell lines derived from nine human cancer cell types, grouped into disease sub-panels that represent leukemia, lung, colon, central nervous system (CNS), melanoma, renal, ovary, breast, and prostate cancer cells. Growth inhibitory (GI50) effects were measured as a function of the variation of optical density as a percentage of control.

CAKI-1 = experiment: NCI 60 growth inhibition; assay type: cell-based, human; conditions: CAKI-1, Renal Cancer, Table 2
Description: as §1

CCRF-CEM = experiment: NCI 60 growth inhibition; assay type: cell-based, human; conditions: Leukemia, Table 2
Description: as §1

COLO 205 = experiment: NCI 60 growth inhibition; assay type: cell-based, human; conditions: COLO 205, Colon Cancer, Table 2
Description: as §1

DU-145 = experiment: NCI 60 growth inhibition; assay type: cell-based, human; conditions: DU-145, Prostate Cancer, Table 2
Description: as §1

EKVX = experiment: NCI 60 growth inhibition; assay type: cell-based, human; conditions: Non-Small Cell Lung Cancer, Table 2
Description: as §1

HCC-2998 = experiment: NCI 60 growth inhibition; assay type: cell-based, human; conditions: HCC-2998, Colon Cancer, Table 2
Description: as §1

HCT-116 = experiment: NCI 60 growth inhibition; assay type: cell-based, human; conditions: HCT-116, Colon Cancer, Table 2
Description: as §1

HL-60(TB) = experiment: NCI 60 growth inhibition; assay type: cell-based, human; conditions: HL-60(TB), Leukemia, Table 2
Description: as §1

HOP-62 = experiment: NCI 60 growth inhibition; assay type: cell-based, human; conditions: HOP-62, Non-Small Cell Lung Cancer, Table 2
Description: as §1

HOP-92 = experiment: NCI 60 growth inhibition; assay type: cell-based, human; conditions: HOP-92, Non-Small Cell Lung Cancer, Table 2
Description: as §1

HS 578T = experiment: NCI 60 growth inhibition; assay type: cell-based, human; conditions: Breast Cancer, Table 2
Description: as §1

IGROV1 = experiment: NCI 60 growth inhibition; assay type: cell-based, human; conditions: IGROV1, Ovarian Cancer, Table 2
Description: as §1

K-562 = experiment: NCI 60 growth inhibition; assay type: cell-based, human; conditions: K-562, Leukemia, Table 2
Description: as §1

MALME-3M = experiment: NCI 60 growth inhibition; assay type: cell-based, human; conditions: Melanoma, Table 2
Description: as §1

MDA-MB-231/ATCC = experiment: NCI 60 growth inhibition; assay type: cell-based, human; conditions: Breast Cancer, Table 2
Description: as §1

MDA-MB-435 = experiment: NCI 60 growth inhibition; assay type: cell-based, human; conditions: MDA-MB-435, Melanoma, Table 2
Description: as §1

MDA-MB-468 = experiment: NCI 60 growth inhibition; assay type: cell-based, human; conditions: MDA-MB-468, Breast Cancer, Table 2
Description: as §1

MOLT-4 = experiment: NCI 60 growth inhibition; assay type: cell-based, human; conditions: MOLT-4, Leukemia, Table 2
Description: as §1

NCI-H226 = experiment: NCI 60 growth inhibition; assay type: cell-based, human; conditions: NCI-H226, Non-Small Cell Lung Cancer, Table 2
Description: as §1

NCI-H23 = experiment: NCI 60 growth inhibition; assay type: cell-based, human; conditions: NCI-H23, Non-Small Cell Lung Cancer, Table 2
Description: as §1

NCI-H322M = experiment: NCI 60 growth inhibition; assay type: cell-based, human; conditions: Non-Small Cell Lung Cancer, Table 2
Description: as §1

NCI-H460 = experiment: NCI 60 growth inhibition; assay type: cell-based, human; conditions: NCI-H460, Non-Small Cell Lung Cancer, Table 2
Description: as §1

NCI/ADR-RES = experiment: NCI 60 growth inhibition; assay type: cell-based, human; conditions: Ovarian Cancer, Table 2
Description: as §1

OVCAR-3 = experiment: NCI 60 growth inhibition; assay type: cell-based, human; conditions: OVCAR-3, Ovarian Cancer, Table 2
Description: as §1

PC-3 = experiment: NCI 60 growth inhibition; assay type: cell-based, human; conditions: PC-3, Prostate Cancer, Table 2
Description: as §1

RPMI-8226 = experiment: NCI 60 growth inhibition; assay type: cell-based, human; conditions: RPMI-8226, Leukemia, Table 2
Description: as §1

RXF 393 = experiment: NCI 60 growth inhibition; assay type: cell-based, human; conditions: Table 2
Description: as §1

SF-268 = experiment: NCI 60 growth inhibition; assay type: cell-based, human; conditions: SF-268, CNS Cancer, Table 2
Description: as §1

SK-MEL-28 = experiment: NCI 60 growth inhibition; assay type: cell-based, human; conditions: SK-MEL-28, Melanoma, Table 2
Description: as §1

SK-MEL-2 = experiment: NCI 60 growth inhibition; assay type: cell-based, human; conditions: SK-MEL-2, Melanoma, Table 2
Description: as §1

SK-OV-3 = experiment: NCI 60 growth inhibition; assay type: cell-based, human; conditions: SK-OV-3, Ovarian Cancer, Table 2
Description: as §1

SW-620 = experiment: NCI 60 growth inhibition; assay type: cell-based, human; conditions: SW-620, Colon Cancer, Table 2
Description: as §1

T-47D = experiment: NCI 60 growth inhibition; assay type: cell-based, human; conditions: Breast Cancer, Table 2
Description: as §1

UACC-62 = experiment: NCI 60 growth inhibition; assay type: cell-based, human; conditions: UACC-62, Melanoma, Table 2
Description: as §1

[1] = tested on: NCI panel of 60 human cancer cell lines; experiment: NCI 60 growth inhibition, ranges over groups of cell lines; assay type: cell-based; conditions: read-out: GI50
Description: as §1

C=C1C(=O)O[C@H]2[C@H]1CC/C(Cn1cc(-c3cc(C)c(C)cc3C)nn1)=C\CC[C@@]1(C)O[C@@H]21 [JVM 4-50]
EC50 (M9 ENL1 cell line): 9.8 µM
GI50 (786-0): 1.5 µM
GI50 (CAKI-1): 1.08 µM
GI50 (CCRF-CEM): 0.45 µM
GI50 (COLO 205): 0.64 µM
GI50 (DU-145): 1.35 µM
GI50 (EKVX): 1.22 µM
GI50 (HCC-2998): 1.72 µM
GI50 (HCT-116): 0.33 µM
GI50 (HL-60(TB)): 0.64 µM
GI50 (HOP-62): 1.77 µM
GI50 (HOP-92): 0.43 µM
GI50 (HS 578T): 1.94 µM
GI50 (IGROV1): 1.29 µM
GI50 (K-562): 1.39 µM
GI50 (MALME-3M): 1.43 µM
GI50 (MDA-MB-231/ATCC): 1.11 µM
GI50 (MDA-MB-435): 1.41 µM
GI50 (MDA-MB-468): 0.53 µM
GI50 (MOLT-4): 2.38 µM
GI50 (NCI-H226): 1.46 µM
GI50 (NCI-H23): 1.77 µM
GI50 (NCI-H322M): 11.1 µM
GI50 (NCI-H460): 3.16 µM
GI50 (NCI/ADR-RES): 2.51 µM
GI50 (OVCAR-3): 1.03 µM
GI50 (PC-3): 1.47 µM
GI50 (RPMI-8226): 1.18 µM
GI50 (RXF 393; RXF 393, Renal Cancer): 0.96 µM
GI50 (SF-268): 1.52 µM
GI50 (SK-MEL-28): 1.4 µM
GI50 (SK-MEL-2): 1.75 µM
GI50 (SK-OV-3): 11.7 µM
GI50 (SW-620): 0.42 µM
GI50 (T-47D): 0.53 µM
GI50 (UACC-62): 1.13 µM

C=C1C(=O)O[C@H]2[C@H]1CC/C(Cn1cc(-c3cccc(Cl)c3)nn1)=C\CC[C@@]1(C)O[C@@H]21 [JVM 4-25, (1aR,7aS,10aS,10bS,E)-5((4-(3-Chlorophenyl)-1H-1,2,3-triazol-1-yl)methyl)-1a-methyl-8-methylene-2,3,6,7,7a,8,10a,10b-octahydrooxireno[2′,3′:9,10]cyclodeca[1,2-b]furan-9(1aH)-one]
GI50 (786-0; Homo sapiens): 0.5 µM
GI50 (CAKI-1; Homo sapiens): 0.86 µM
GI50 (CCRF-CEM; Homo sapiens): 0.2 µM
GI50 (COLO 205; Homo sapiens): 0.41 µM
GI50 (DU-145; Homo sapiens): 1 µM
GI50 (EKVX; Homo sapiens): 1.57 µM
GI50 (HCC-2998; Homo sapiens): 1.64 µM
GI50 (HCT-116; Homo sapiens): 0.16 µM
GI50 (HL-60(TB); Homo sapiens): 0.33 µM
GI50 (HOP-62; Homo sapiens): 1.94 µM
GI50 (HOP-92; Homo sapiens): 0.25 µM
GI50 (HS 578T; Homo sapiens): 2.26 µM
GI50 (IGROV1; Homo sapiens, IGROV-1): 0.73 µM
GI50 (K-562; Homo sapiens, K562): 0.4 µM
GI50 (MALME-3M; Homo sapiens): 1.2 µM
GI50 (MDA-MB-231/ATCC; Homo sapiens): 1.09 µM
GI50 (MDA-MB-435; Homo sapiens): 0.59 µM
GI50 (MDA-MB-468; Homo sapiens): 0.56 µM
GI50 (MOLT-4; Homo sapiens): 0.31 µM
GI50 (NCI-H226; Homo sapiens): 1.71 µM
GI50 (NCI-H23; Homo sapiens): 1.58 µM
GI50 (NCI-H322M; Homo sapiens): 2.17 µM
GI50 (NCI-H460; Homo sapiens): 2.13 µM
GI50 (NCI/ADR-RES; Homo sapiens): 2.39 µM
GI50 (OVCAR-3; Homo sapiens): 0.47 µM
GI50 (PC-3; Homo sapiens): 1.98 µM
GI50 (RPMI-8226; Homo sapiens): 0.5 µM
GI50 (RXF 393; Homo sapiens, RXF 393, RXF 393, Renal Cancer): 0.55 µM
GI50 (SF-268; Homo sapiens): 1.59 µM
GI50 (SK-MEL-28; Homo sapiens): 0.35 µM
GI50 (SK-MEL-2; Homo sapiens): 1.66 µM
GI50 (SK-OV-3; Homo sapiens): 3.67 µM
GI50 (SW-620; Homo sapiens): 0.33 µM
GI50 (T-47D; Homo sapiens, T47D): 0.83 µM
GI50 (UACC-62; Homo sapiens): 0.62 µM
GI50 ([1]; all the cell lines in the leukemia sub-panel): 0.1 to 0.5 µM
GI50 ([1]; most of the solid tumor cell lines in the panel): 0.16 to 0.99 µM
